# Data published in ChEMBL document CHEMBL6153110, “Peptide Double-Stapling and Arginine N-Glycosylation Triggered the Development of Therapeutic Antimicrobial Peptides Capable of Killing Drug-Resistant Bacteria in Mice” (J Med Chem, 2025).
# Calls of active or inactive are those of the source. The rule behind the calls is not given here. Residues, ends and D or L forms follow the SMILES beside them.
# Experiments:
# [1] = test system: Klebsiella pneumoniae; assay: Antimicrobial activity against Klebsiella pneumoniae ATCC 13883 assessed as growth inhibition measured after 8 hrs incubation by standard broth dilution assay; assay type: functional
# [2] = test system: Streptococcus pneumoniae; assay: Antimicrobial activity against Streptococcus pneumoniae ATCC 49619 assessed as growth inhibition measured after 8 hrs incubation by standard broth dilution assay; assay type: functional
# [3] = test system: Staphylococcus aureus; assay: In vivo antibacterial activity against methicillin-resistant Staphylococcus aureus ATCC 43300 infected locally in full thickness skin wound mouse model assessed as reduction in bacterial load in skin wound at 4 mg/kg treated with absorbable gelatin sponge measured after 3 days; assay type: functional, organism-based; details: time 3.0 day
# [4] = test system: Cell membrane; assay: Induction of cell membrane damage in methicillin-resistant Staphylococcus aureus ATCC 43300 assessed as increase in green fluorescence at MIC measured after 1 hr incubation by SYTO9 confocal microscopy; assay type: subcellular
# [5] = test system: Staphylococcus aureus; assay: In vivo antibacterial activity against methicillin-resistant Staphylococcus aureus ATCC 43300 infected locally in full thickness skin wound mouse model assessed as clean and less exudate at 1 mg/kg treated with absorbable gelatin sponge measured on early healing stage; assay type: functional, organism-based; details: route id
# [6] = test system: Cell membrane; assay: Induction of cell membrane damage in methicillin-resistant Staphylococcus aureus ATCC 43300 assessed as increase in red fluorescence at MIC measured after 1 hr incubation by PI based assay; assay type: subcellular
# [7] = test system: Pseudomonas aeruginosa; assay: Antimicrobial activity against Pseudomonas aeruginosa ATCC 27853 assessed as growth inhibition measured after 8 hrs incubation by standard broth dilution assay; assay type: functional
# [8] = test system: Klebsiella pneumoniae; assay: Antibiofilm activity in Klebsiella pneumoniae ATCC 13883 assessed as reduction in biofilm formation at 150 ug/ml measured after 24 hrs by crystal violet staining based assay relative to control; assay type: functional; design: scale not given: the % may be the effect or the level left; details: dose 150 µg/ml
# [9] = test system: Cell membrane; assay: Induction of cell membrane damage in methicillin-resistant Staphylococcus aureus ATCC 43300 assessed as corrugation, blebbing, breakage, and fragmentation at MIC measured after 1 hr incubation by Scanning electron microscopy; assay type: subcellular
# [10] = test system: Staphylococcus aureus; assay: In vivo antibacterial activity against methicillin-resistant Staphylococcus aureus ATCC 43300 infected locally in full thickness skin wound mouse model assessed as reduction in bacterial load in skin wound at 4 mg/kg treated with absorbable gelatin sponge measured after 7 days; assay type: functional, organism-based; details: time 7.0 day
# [11] = test system: Klebsiella pneumoniae; assay: In vivo antibacterial activity against Klebsiella pneumoniae ATCC 13883 induced bacterial pneumonia mouse model assessed as reduction in bacterial infection induced weight loss at 1 mg/kg, injected into trachea after 24 hrs of infection measured after 3 to 7 days; assay type: functional, organism-based
# [12] = test system: Cell membrane; assay: Binding affinity to methicillin-resistant Staphylococcus aureus ATCC 43300 cell membrane treated with FITC labelled peptides at MIC measured after 1.5 hr by CLSM imaging analysis; assay type: subcellular
# [13] = test system: Staphylococcus aureus; assay: In vivo antibacterial activity against methicillin-resistant Staphylococcus aureus ATCC 43300 infected locally in full thickness skin wound mouse model assessed as reduction in bacterial load in skin wound at 1 mg/kg treated with absorbable gelatin sponge measured after 7 days; assay type: functional, organism-based; details: time 7.0 day
# [14] = test system: Staphylococcus aureus; assay: Antibiofilm activity in methicillin-resistant Staphylococcus aureus ATCC 43300 assessed as reduction in biofilm formation at 37.2 ug/ml measured after 24 hrs by crystal violet staining based assay relative to control; assay type: functional; design: scale not given: the % may be the effect or the level left; details: dose 37.2 µg/ml
# [15] = test system: Staphylococcus aureus; assay: In vivo antibacterial activity against methicillin-resistant Staphylococcus aureus ATCC 43300 infected locally in full thickness skin wound mouse model assessed as reduced skin damage by promoting wound healing at 4 mg/kg treated with absorbable gelatin sponge measured on early healing stage; assay type: functional, organism-based; details: route id
# [16] = test system: Klebsiella pneumoniae; assay: In vivo antibacterial activity against Klebsiella pneumoniae ATCC 13883 induced bacterial pneumonia mouse model assessed as reduction in bacterial infection induced weight loss at 4 mg/kg, injected into trachea after 24 hrs of infection measured after 3 to 7 days; assay type: functional, organism-based
# [17] = test system: Cell membrane; assay: Induction of cell membrane damage in Klebsiella pneumoniae ATCC 13883 assessed as increase in green fluorescence at MIC measured after 1 hr incubation by SYTO9 confocal microscopy; assay type: subcellular
# [18] = test system: Cell membrane; assay: Induction of cell membrane damage in methicillin-resistant Staphylococcus aureus ATCC 43300 assessed as significant plasma membrane rupture, […], and cytoplasmic leakage at MIC measured after 1 hr incubation by Transmission electron microscopy; assay type: subcellular
# [19] = Toxicity in mouse assessed as fasciculus necrosis at 40 mg/kg, sc by H and E staining based assay; assay type: organism-based; details: in vivo
# [20] = test system: Cell membrane; assay: Induction of cell membrane damage in Klebsiella pneumoniae ATCC 13883 assessed as increase in red fluorescence at MIC measured after 1 hr incubation by PI based confocal microscopy; assay type: subcellular
# [21] = test system: Cell membrane; assay: Binding affinity to Klebsiella pneumoniae ATCC 13883 cell membrane treated with FITC labelled peptides at MIC measured after 1.5 hr by CLSM imaging analysis; assay type: subcellular
# [22] = test system: Cell membrane; assay: Induction of cell membrane damage in Klebsiella pneumoniae ATCC 13883 assessed as corrugation, blebbing, breakage, and fragmentation at MIC measured after 1 hr incubation by Scanning electron microscopy; assay type: subcellular
# [23] = test system: Staphylococcus aureus; assay: In vivo antibacterial activity against methicillin-resistant Staphylococcus aureus ATCC 43300 infected locally in full thickness skin wound mouse model assessed as reduction in bacterial load in skin wound at 1 mg/kg treated with absorbable gelatin sponge measured after 3 days; assay type: functional, organism-based; details: time 3.0 day
# [24] = Toxicity in mouse assessed as intramuscular injury at 40 mg/kg, sc by H and E staining based assay; assay type: organism-based; details: in vivo
# [25] = Toxicity in mouse skin assessed as abscesses and visual lesions at 40 mg/kg, sc by histological analysis; assay type: organism-based; details: in vivo
# [26] = test system: Staphylococcus aureus; assay: Antimicrobial activity against methicillin-resistant Staphylococcus aureus ATCC 43300 assessed as growth inhibition measured after 8 hrs incubation by standard broth dilution assay; assay type: functional
# [27] = test system: Cell membrane; assay: Induction of cell membrane damage in Klebsiella pneumoniae ATCC 13883 assessed as significant plasma membrane rupture, cytosolic membrane and outer membrane separation, and cytoplasmic leakage at MIC measured after 1 hr incubation by Transmission electron microscopy; assay type: subcellular
structure (smiles),measurement,setting,value
CC(=O)N[C@@H](CC(C)C)C(=O)N[C@@H](CCCCN)C(=O)N[C@@H](CCCNC(=N)N)C(=O)N[C@H](C(=O)N[C@@H](Cc1c[nH]c2ccccc12)C(=O)N[C@@H](CCCCN)C(=O)N[C@@H](CCCNC(=N)N)C(=O)N[C@H](C(=O)N[C@@H](Cc1ccccc1)C(=O)N[C@@H](CCCCN)C(=O)N[C@@H](CC(C)C)C(=O)N[C@@H](CC(C)C)C(=O)N[C@@H](CCCCN)C(=O)N[C@@H](CCCNC(=N)N)C(=O)N[C@@H](Cc1ccc(O)cc1)C(=O)N[C@@H](Cc1c[nH]c2ccccc12)C(=O)N[C@@H](CCCNC(=N)N)C(=O)N[C@@H](CCC(N)=O)C(=O)N[C@@H](CC(C)C)C(=O)N[C@@H](CCCCN)C(=O)N[C@@H](CCCCN)C(=O)N1CCC[C@H]1C(=O)N[C@H](C(=O)N[C@@H](CCCNC(=N)N)C(N)=O)C(C)C)C(C)C)C(C)C (Ac-LKRVWKRVFKLLKRYWRQLKKPVR-NH2),MIC,[1],38 µg/mL
same,MIC,[2],4.7 µg/mL
same,Activity,[3],Active
same,Activity,[4],Active
same,Activity,[5],Active; Model Group Showed Yellowish Compared With The Wounds Treated With Compound
same,Activity,[6],Active
same,MIC,[7],4.9 µg/mL
same,Activity,[8],86.42%
same,Activity,[9],inactive
same,Activity,[10],Active
same,Activity,[11],Active
same,Activity,[12],Active
same,Activity,[13],Active
same,Activity,[14],77.25%
same,Activity,[15],Active
same,Activity,[16],Active
same,Activity,[17],Active
same,Activity,[18],Active
same,Activity,[19],Toxic
same,Activity,[20],Active
same,Activity,[21],Active
same,Activity,[22],inactive
same,Activity,[23],Active
same,Activity,[24],Toxic
same,Activity,[25],Toxic
same,MIC,[26],9.7 µg/mL
same,Activity,[27],Active
